Assay in all cases: inhibition of tumour cell growth, NCI panel, 48 h
Assay [1] has as its system SW-620 colon.
Assay [2] concerns SF-539 CNS.
In assay [3] the test system is CAKI-1 renal.
For assay [4], the system named is SK-MEL-28 melanoma.
Assay [5] has as its system SR leukemia.
Assay [6] relates to MCF7 breast.
For assay [7], the system named is SK-MEL-2 melanoma.
The subject of assay [8] is UACC-62 melanoma.
Assay [9] deals with SK-OV-3 ovarian.
The test system of assay [10] is 786-0 renal.

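Compound exposure: 48 hours, 5 concentrations, 96-well plates. Here, GI50 denotes the concentration required for 50% inhibition of growth. TGI is the concentration that stops growth completely.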

As for `CN=C1C=C(/N=C2/C=C(N/C(=C\C#N)C(C)(C)O)OC2(C)C)OC1(C)C`, the TGI in [1] is > 100 µM; in [2], > 100 µM; in assay [3], > 67.1 µM; in assay [4], > 100 µM; in [5] it was > 68.5 µM; in [6] it was > 100 µM. The TGI was > 82.8 µM in assay [7], > 85.8 µM in assay [8], > 73.6 µM in assay [9] and > 100 µM in assay [10].
Take `N=C(N)c1ccc(N=Nc2c(O)c(C(=O)Nc3ccccc3)cc3ccccc23)cc1`: the TGI in [1] is > 100 µM; in [2], 43 µM; in [3], > 100 µM; in assay [4] it was > 100 µM; in assay [5], > 75.8 µM; in [6], 41.7 µM. The TGI was > 100 µM in assay [7], > 100 µM in assay [8], > 90.8 µM in assay [9] and 30.2 µM in assay [10].
As to `CCOC(=O)/C(=C/c1cn(C(C)=O)c2ccccc12)P(=O)(OC)OC`, the TGI is > 100 µM in assay [1]; > 100 µM in [3]; > 100 µM in assay [4]; 73.8 µM in assay [5]; > 100 µM in assay [6]; > 100 µM in assay [7]. Besides, the TGI in assay [9] was > 100 µM.
In the case of `Cc1c(-c2ccccc2)oc(=O)c2ccccc12`, the TGI was 36.2 µM in assay [2]; 53.9 µM in assay [3]; 37.3 µM in [4]; 65.4 µM in [5]; > 100 µM in assay [6]; 38.5 µM in assay [7]. The figures for the TGI in assay [8], in assay [9] and in assay [10] were 33 µM, 54.4 µM and 51.2 µM, respectively.
Turning to `O=C(Nc1nnc(-c2ccccc2)o1)C(SC(=S)N1CCCC1)c1ccccc1` (centres undefined), the TGI in assay [1] was > 100 µM; in [2], 91.8 µM; in assay [3], > 100 µM; in assay [4], > 100 µM; in assay [5], > 100 µM; in [6], > 100 µM. Moreover, the TGI in assay [7], in assay [9] and in assay [10] was > 100 µM in each case.
Turning to `Cc1cc(C)n(C(=CC(=O)C(Cl)Cl)n2nc(C)cc2C)n1`, the TGI is 40.6 µM in [1]; 14.1 µM in [2]; 19.1 µM in assay [3]; 5.69 µM in assay [5]; > 100 µM in assay [6]; 25.7 µM in assay [7]. For the same molecule, the TGI in assay [8] is 7.84 µM; in [9], > 100 µM; in assay [10] it was 10 µM.
In the case of `CC(C)(C)c1cc(C(C)(C)C)c2sc(=O)oc2c1O`, the TGI in assay [2] was 30.9 µM; in assay [3], 25.3 µM; in assay [4] it was 32.5 µM; in [5], 63.6 µM; in assay [6], 28 µM; in assay [7] it was 29.1 µM. Moreover, the TGI in assay [9] was 35.3 µM; in [10], 38.1 µM.
For `CCOC(=O)CC1C(C(=O)OCC)=Cn2c([nH]c3cccc4cccc2c43)=C1C(=O)OCC` (centres undefined), the TGI in assay [1], in assay [3], in assay [4], in [5], in [6] and in assay [7] was > 100 µM in each case. Further, the TGI in assay [8], in [9] and in [10] was > 100 µM throughout.
On to `CCN(CCCl)c1cc(CN(C)C)cc(NC(=O)c2ccc(C(=O)Nc3cccc(N(CCCl)NN)c3)cc2)c1`, for which the TGI was 0.56 µM in assay [2]; 0.203 µM in assay [3]; 0.505 µM in assay [4]; > 100 µM in assay [5]; 0.171 µM in assay [6]; 0.181 µM in [7]. The figures for the TGI in assay [8] and in [9] were 0.324 µM and 13.3 µM, respectively.
With `CN(C)CCCNC(=O)N/N=C/c1ccccn1`, the TGI in assay [1], in assay [2], in assay [4], in [5], in assay [6] and in [8] was > 10 µM in each case. Also, the TGI in [9] was > 10 µM.
As for `Nc1c(-c2ccccc2)c2ccc([N+](=O)[O-])cc2c(=O)n1-c1cccc(C(=O)O)c1`, the TGI in assay [1], in assay [2], in assay [3], in [4], in [5] and in assay [6] was > 100 µM in each case. The TGI in assay [7], in assay [8] and in [9] was > 100 µM each time.
Take `COc1ccc(C=C2C(C)=NN(c3cccc(Cl)c3)C23C(Cl)C(=O)N3c2nc3ccccc3s2)cc1` (centres undefined): the TGI in [1] is 20.7 µM; in assay [2] it was > 100 µM; in assay [3], 61 µM; in assay [4], 23.9 µM; in assay [5], 85.7 µM; in [6], 61.4 µM. For the same molecule, the TGI in assay [7] was found to be 38.9 µM; in assay [9], 89.7 µM; in assay [10], 29.4 µM.
With `CC(C)C(Nc1c2ccccc2[n+](C)c2ccccc12)C(=O)O` (centres undefined), the TGI in assay [1], in assay [2], in assay [3], in assay [5], in assay [7] and in [8] was > 100 µM in each case. Moreover, the TGI in assay [9] and in [10] was > 100 µM throughout.
In the case of `CC1(c2ccc(Cl)cc2)c2ccccc2C(=O)N1CCCN1C(=O)c2ccccc2C1=O` (centres undefined), the TGI in [1] was > 100 µM; in [3], > 100 µM; in [4] it was > 100 µM; in assay [5] it was > 100 µM; in [7], 46.3 µM; in assay [8], > 100 µM. The TGI in [9] and in assay [10] was > 100 µM in each case.
Take `COc1ccc(C2CC(c3cccc(Nc4ccncc4)c3)=NN2c2ccccc2)cc1` (centres undefined): the GI50 is 1.81 µM in assay [1]; 1.61 µM in assay [2]; 1.66 µM in assay [3]; 1.69 µM in [4]; 2 µM in assay [5]; 1.87 µM in [6]. Also, the GI50 in assay [7] is 2.39 µM; in [8], 1.74 µM; in assay [9] it was 5.53 µM. For the same molecule, the TGI was 3.43 µM in [1]; 3.04 µM in assay [2]; 3.18 µM in [3]; 3.24 µM in assay [4]; 5.59 µM in assay [5]; 4.01 µM in assay [6]. In addition, the results for the TGI in assay [7], in assay [8] and in assay [9] were 5.01 µM, 3.21 µM and 20.9 µM, respectively.
`COc1cc2c(cc1OC)C(C1CC1)ON(C)CC2` (centres undefined): the TGI in assay [1], in [2], in [3], in [4], in assay [5] and in assay [6] was > 100 µM in each case. The TGI in [7], in assay [8] and in assay [10] was > 100 µM throughout.
For `CC(=O)N1CN2C(=O)CCC2c2cc(C)ccc21` (centres undefined), the TGI in assay [1], in assay [2], in assay [3], in assay [4], in assay [6] and in assay [7] was > 100 µM each time. In addition, the TGI in assay [8], in assay [9] and in assay [10] was > 100 µM each time.
On to `O=c1[nH]c(NCCCCCO)nc2nc[nH]c12`, for which the TGI in [1], in [3], in assay [5], in [7], in assay [8] and in assay [10] was > 100 µM throughout.
For the molecule `CCCCCCCCCCCCCCCCOC[C@H](COC(c1ccccc1)(c1ccccc1)c1ccccc1)O[P+](=S)OC` (some centres undefined), the TGI in assay [1], in assay [2], in assay [3], in assay [5], in assay [6] and in [7] was > 100 µM in each case. The TGI in assay [8], in [9] and in assay [10] was > 100 µM in each case.
For `CN(Cc1ccccc1)C(=S)S`, the TGI was > 100 µM in [1]; > 100 µM in assay [3]; > 100 µM in assay [4]; 59.7 µM in [5]; > 100 µM in assay [6]; > 100 µM in assay [7]. Further, the TGI in [8] is > 100 µM; in [9], > 100 µM; in [10], 40.7 µM.
In the case of `O=c1ccc(=O)c2c1c1[nH]c3ccccc3c1c1c(=O)c3ccccc3c(=O)c21`, the TGI in [1], in assay [2], in assay [3], in assay [4], in assay [5] and in assay [7] was > 10 µM in each case. Moreover, the TGI in assay [8], in assay [9] and in [10] was > 10 µM throughout.
For `O=C(O)C1C2OC(C(Br)C2Br)C1C(=O)O` (centres undefined), the TGI in [1], in assay [2], in assay [3], in [4], in assay [6] and in assay [7] was > 100 µM each time. Further, the TGI in [8], in [9] and in [10] was > 100 µM in each case.
In the case of `CCOC(=O)CC1(N)CC2c3ccccc3OC(=O)C2C(=O)N1` (centres undefined), the TGI in assay [1], in assay [3], in assay [4], in assay [5], in [7] and in assay [8] was > 100 µM each time. In assay [10], the TGI is > 100 µM.
For `CCCCCCCCCCCCCCCC[N+](C)(C)CCl`, the TGI was > 100 µM in assay [1]; 8.13 µM in assay [2]; 8.74 µM in assay [3]; > 50.7 µM in assay [4]; > 28.9 µM in [6]; 49.8 µM in assay [7]. For the same molecule, the TGI in assay [8] amounted to 6.46 µM; in assay [9], 27.7 µM; in [10], 3.31 µM.
With `Cn1c(COC(=O)NC2CCCCC2)c(COC(=O)NC2CCCCC2)c2ccc3ccccc3c21`, the TGI in [1] is > 100 µM; in assay [2], 66.2 µM; in assay [3], 70.6 µM; in assay [5], > 100 µM; in assay [6], > 100 µM; in assay [7], 93.4 µM. Further, the TGI in assay [8], in assay [9] and in assay [10] was > 100 µM in each case.
As for `O=C(CN1CCCC1)Nc1ccc2c(c1)C1Oc3ccccc3CC1CO2` (centres undefined), the TGI in assay [1] was 35.6 µM; in assay [2], 39.5 µM; in [3], > 100 µM; in assay [5] it was 89.6 µM; in assay [6], 32.4 µM; in [7] it was 50 µM. For the same molecule, the values for the TGI in assay [8], in assay [9] and in [10] were 33 µM, > 100 µM and 57.1 µM, respectively.
Turning to `COc1cc(CNc2nc3c(NC(C)=O)cc(C(F)(F)F)cc3nc2-c2ccccc2)cc(OC)c1OC`, the TGI in [1], in assay [2], in [3], in assay [4], in [5] and in [7] was > 100 µM throughout. Moreover, the TGI in assay [8] and in assay [9] was > 100 µM in each case.
With `N#Cc1nc(-c2ccsc2)oc1N`, the TGI in [1], in assay [3], in assay [4], in [5], in [6] and in [7] was > 100 µM in each case. Further, the TGI in assay [8], in assay [9] and in assay [10] was > 100 µM in each case.
As for `CC(=O)CCN1CC2CN=NC2(C#N)C1` (centres undefined), the TGI is > 55.6 µM in assay [1]; > 100 µM in assay [2]; > 100 µM in assay [4]; > 100 µM in assay [5]; > 100 µM in assay [6]; > 100 µM in assay [7]. Besides, the TGI in assay [8], in assay [9] and in assay [10] was > 100 µM throughout. The GI50 in assay [2] and in assay [9] was > 100 µM throughout.
Regarding `CC1=NN(c2cc(Cl)c(S(=O)(=O)O)cc2Cl)C2(C1)C(Cl)C(=O)N2c1nc2ccccc2s1` (centres undefined), the TGI in [1], in assay [2], in [3], in [4], in [5] and in assay [6] was > 100 µM throughout. The TGI in assay [7], in assay [8] and in assay [10] was > 100 µM throughout.
